Results: paper PMC5834943 (ACS chemical biology, 2017)

Key:
[1] = molecular target: T1, branched-chain aminotransferase (MtIlvE) (Mycobacterium tuberculosis, UniProt P9WQ75); assay: […]; assay type: biochemical; conditions: read-out: Ki
[2] = molecular target: T1, branched-chain aminotransferase (MtIlvE); assay: biochemical; assay type: binding

T1 sequence (P9WQ75 whole entry): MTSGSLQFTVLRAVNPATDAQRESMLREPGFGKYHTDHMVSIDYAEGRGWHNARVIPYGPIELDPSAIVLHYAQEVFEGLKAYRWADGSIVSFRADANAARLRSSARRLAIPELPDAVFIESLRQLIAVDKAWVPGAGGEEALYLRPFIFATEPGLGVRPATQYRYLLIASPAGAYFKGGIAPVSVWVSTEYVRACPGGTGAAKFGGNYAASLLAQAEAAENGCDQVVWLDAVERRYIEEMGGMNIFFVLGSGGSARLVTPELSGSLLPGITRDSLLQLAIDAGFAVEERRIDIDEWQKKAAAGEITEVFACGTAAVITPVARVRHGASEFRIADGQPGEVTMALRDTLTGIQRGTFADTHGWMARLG

## N[C@H]1CONC1=O [LCS, L-cycloserine]
[1]
  KI (inactivation): 88 µM

## N[C@@H]1CON=C1O [DCS, D-Cycloserine]
[2]
  kinact/KI: 0.12 M⁻¹ s⁻¹
